Results: patent US7507727B2, “Substituted quinobenzoxazine analogs and methods of using thereof” (Cylene Pharmaceuticals, Inc., priority 2003, dated 2009)
Where two headings read alike, the source gives them in different places.

Columns and labels:
[1] = system: Chinese Hamster Ovary Cells (CHO); assay: In vitro chromosome aberration assay (incl. mitotic index); format: cell-based
HeLa cells = assay: MTS cell proliferation and/or cytotoxicity assay; format: cell-based, Human; conditions: Homo sapiens, HeLa
Procedure, shortened: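 HeLa cells seeded at 4,500 cells/well, exposed to compounds from day 1 for 3 days at 37 °C, 5% CO2. Viability by MTS/PMS (20:1) with 4 h incubation, absorbance at 490 nm. Values are concentrations giving 50% antiproliferative response.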

[2] = target: c-Myc template DNA (c-myc quadruplex); assay: Quadruplex binding / stop assay (Taq polymerase arrest, capillary electrophoresis)
[3] = CHO, positive control high dose (H)
[4] = CHO, positive control low dose (L)
[5] = CHO, positive control low dose (L), 20 hrs
[6] = 72 h, concentration at which 50% of antiproliferative cell response is seen, 3 days incubation, read-out: MTS Data Hella
[7] = read-out: Stop Data c-Myc μM, concentration at which 50% of the DNA was arrested (arrested:full-length 1:1)
[8] = HeLa cells, MTS, read-out: Hela MTS
[9] = read-out: S DATA, Table 1D, stop assay data

IC50 [2, 7] [µM]	SMILES	IC50 (HeLa cells; [6]) [µM]	other results
–	CO[C@@]12[C@H](COC(N)=O)C3=C(C(=O)C(C)=C(N)C3=O)N1C[C@@H]1N[C@@H]12 [MMC]	–	% CA 3 HRS [1, 3]: 42.0%; FI 3 HRS [1, 3]: 14.0; % CA 3 HRS [1, 4]: 20.3%; FI 3 HRS [1, 4]: 6.8; % CA 20 HRS [1, 5]: 26.5%; FI 20 HRS [1, 5]: 8.8; % MI 20 HRS ([1]; average mitotic index, positive control low dose (L), 20 hrs): 5%; % MI ([1]; average mitotic index, positive control low dose (L), first column (time not given)): 6%
0.5	O=C(CN1CCCCC1)N[C@@H]1CCN(c2c(F)cc3c(=O)c(C(=O)NCCN4CCCC4)cn4c3c2Oc2cc3c(cc2-4)oc2ccccc23)C1 [compound 482]	3.4	–
0.75	CN1CCCC1CCNC(=O)c1cn2c3c(c(NCCc4ccc(O)c(O)c4)c(F)cc3c1=O)Oc1cc3ccccc3cc1-2 (stereo not shown) [compound 381]	1.8	–
0.75	CN1CCCC1CCNC(=O)c1cn2c3c(c(N4CCC(NC(=O)OC(C)(C)C)C4)c(F)cc3c1=O)Oc1cc3c(cc1-2)oc1ccccc13 (stereo not shown) [compound 389]	0.29	–
0.1	CN1CCCC1CCNC(=O)c1cn2c3cc4c(=O)c5ccccc5c(=O)c4cc3oc3c(NCCN4CCCC4)c(F)cc(c1=O)c32 (stereo not shown) [compound 592]	3.8	–
3	O=C(NCCN1CCCC1)c1cn2c3c(c(N4CCC(c5cnccn5)C4)c(F)cc3c1=O)Oc1ccccc1-2 (stereo not shown) [compound 32]	0.6	–
0.375	CN(C)CCCCNc1c(F)cc2c(=O)c(C(=O)NCCN3CCOCC3)cn3c4cc5c(cc4oc1c23)c(=O)c1ccccc15 [compound 518]	2.2	–
0.375	NC1CCN(c2c(F)cc3c(=O)c(C(=O)NCCN4CCOCC4)cn4c3c2Oc2cc3c(cc2-4)oc2ccccc23)C1 (stereo not shown) [compound 530]	0.72	–
0.18	CN(C)CCCCNC(=O)c1cn2c3cc4c(cc3oc3c(NCCCCN(C)C)c(F)cc(c1=O)c32)c(=O)c1ccccc14 [compound 576]	2.1	–
0.18	O=C(NCCN1CCCC1)c1cn2c3cc4c(cc3oc3c(NCCN5CCCC5)c(F)cc(c1=O)c32)c(=O)c1ccccc14 [compound 577]	1.1	–
0.75	O=C(NCCCn1ccnc1)c1cn2c3c(c(NCCN4CCCC4)c(F)cc3c1=O)Oc1cc3c(cc1-2)oc1ccccc13 [compound 368]	3.6	–
1.75	CN1CCCC1CCNC(=O)c1cn2c3c(c(N4CC[C@@H](N)C4)c(F)cc3c1=O)Oc1ccccc1-2 (stereo partly shown) [compound 111]	0.22	–
–	CN1CCCC1CCNC(=O)c1cn2c3c(c(N4CC5CCCNC5C4)c(F)cc3c1=O)Oc1cc3ccccc3cc1-2 (stereo not shown) [compound 1636]	–	IC50 (HeLa cells; [8]): 0.15 µM; IC50 [2, 9]: 0.375 µM
0.375	CN1CCCC1CCNC(=O)c1cn2c3c(c(NCC4CC(C)(C)N(O)C4(C)C)c(F)cc3c1=O)Oc1cc3ccccc3cc1-2 (stereo not shown) [compound 513]	3.1	–
0.75	CC(C)(C)OC(=O)NC1CCN(c2c(F)cc3c(=O)c(C(=O)NCCN4CCCC4)cn4c3c2Oc2cc3c(cc2-4)oc2ccccc23)C1 (stereo not shown) [compound 384]	0.37	–
–	CC1(C)CC(NC(=O)c2cn3c4c(c(N5CCC(N)C5)ccc4c2=O)Oc2cc4ccccc4cc2-3)CC(C)(C)N1 (stereo not shown) [compound 1558]	–	IC50 (HeLa cells; [8]): 0.24 µM; IC50 [2, 9]: 0.375 µM
0.75	CN1CCCC1CCNC(=O)c1cn2c3c(c(NCC(O)c4ccccc4)c(F)cc3c1=O)Oc1cc3ccccc3cc1-2 (stereo not shown) [compound 392]	0.19	–
–	CN(C)c1cccc(CNc2c(F)cc3c(=O)c(C(=O)NCCC4CCCN4C)cn4c3c2Oc2cc3ccccc3cc2-4)c1 (stereo not shown) [compound 1688]	–	IC50 (HeLa cells; [8]): 0.25 µM; IC50 [2, 9]: 0.75 µM
0.25	CN1CCCC1CCNC(=O)c1cn2c3c(c(N4CC[C@@H](N)C4)c(F)cc3c1=O)Oc1cc3ccccc3cc1-2 (stereo partly shown) [compound 564]	0.29	–
0.75	N[C@@H]1CCN(c2c(F)cc3c(=O)c(C(=O)NCCN4CCOCC4)cn4c3c2Oc2cc3ccccc3cc2-4)C1 [compound 390]	0.24	–
0.75	CN(C)CCCCNc1c(F)cc2c(=O)c(C(=O)NCCN3CCCC3)cn3c2c1Oc1cc2c(cc1-3)oc1ccccc12 [compound 369]	3.5	–
0.75	CN1CCN(CCCNc2c(F)cc3c(=O)c(C(=O)NCCC4CCCN4C)cn4c3c2Oc2cc3c(cc2-4)oc2ccccc23)CC1 (stereo not shown) [compound 363]	3.8	–
0.75	CN1CCN(CCCNC(=O)c2cn3c4c(c(NCCN5CCCC5)c(F)cc4c2=O)Oc2cc4c(cc2-3)oc2ccccc24)CC1 [compound 365]	3.8	–
1.75	N[C@H]1CCN(c2c(F)cc3c(=O)c(C(=O)NCCN4CCCC4)cn4c3c2Oc2ccccc2-4)C1 [compound 109]	0.31	–
–	CN(C)CCCCNC(=O)c1cn2c3c(c(N4CCC(N)C4)ccc3c1=O)Oc1cc3ccccc3cc1-2 (stereo not shown) [compound 1559]	–	IC50 (HeLa cells; [8]): 0.24 µM; IC50 [2, 9]: 0.18 µM
0.41	CN1CCCC1CCNc1c(F)cc2c(=O)c(C(=O)NCCN3CCCC3)cn3c2c1Oc1c-3ccc2ccccc12 (stereo not shown) [compound 497]	2.1	–
0.375	N[C@H]1CCN(c2c(F)cc3c(=O)c(C(=O)NCCCN4CCOCC4)cn4c5cc6c(cc5oc2c34)c(=O)c2ccccc26)C1 [compound 511]	3.1	–
0.22	O=C(NCCN1CCCC1)c1cn2c3cc4c(=O)c5ccccc5c(=O)c4cc3oc3c(NCCN4CCCC4)c(F)cc(c1=O)c32 [compound 568]	4.1	–
0.18	CN(C)CCCCNC(=O)c1cn2c3cc4c(=O)c5ccccc5c(=O)c4cc3oc3c(NCCN4CCCC4)c(F)cc(c1=O)c32 [compound 574]	4	–
